The text below walks through data of publication PMC5363373, “Zirconium tetraazamacrocycle complexes display extraordinary stability and provide a new strategy for zirconium-89-based radiopharmaceutical development” (Chemical Science, 2016).

The nature of one data set: PET/CT imaging. Format: in vivo, female NIH Swiss mice. The conditions noted are these: normal mice; for Route of excretion: PET imaging; for PET: radioactivity at 4 h after injection / PET: radioactivity at 24 h after injection: static imaging. The protocol: PET/CT Imaging. PET imaging with 89Zr-DFO or 89Zr-DOTA was performed on healthy female NIH Swiss mice (6-8 wk old, n=6) using a small animal PET/CT scanner (eXplore VISTA model, GE Healthcare, Waukesha, WI). Before imaging, each mouse was anesthetized by inhalation of isoflurane mixed with oxygen gas (3% isoflurane for induction and 1-2% for maintenance) and a tail vein catheter was placed on the tail. The mouse was then positioned in the imaging cradle and a CT scan was performed for the subsequent attenuation correction and anatomical colocalization. After the CT scan, 89Zr-DFO or 89Zr-DOTA (11.1-12.5 MBq (300-338 µCi) in 100 µL saline/ mouse) was administered through the tail vein catheter, and a dynamic PET scan was simultaneously initiated and acquired for 1 hour to record the initial distribution and pharmacokinetics. Mice were re-anesthetized at 2, 4 and 24 hours, and a static PET scan was acquired for 20 min as late-phase scans. PET images were reconstructed using 2D ordered subset expectation maximization (2D-OSEM) algorithms with random, scatter, and attenuation corrections and then coregistered with the CT image. The PET system was calibrated using a Zr-89 phantom with known activity. Standard uptake value (SUV = [(nCi/mL) x (animal wt. (g))/ injected dose (nCi)]) and the measure of %ID/g was then calculated voxel-wise with the calibration factor and normalization to the injected dose and animal body weight. For dynamic scans, data were binned into 19 time frames with the following schemes: 6x10s, 2x30s, 3x60s, 5x5min, 3x10min. The tissue uptake curves were generated from the dynamic scans with regions of interest (ROIs) manually placed in heart, liver, kidney, bone, and muscle. Biodistribution data at 2, 4 and 24 hours were obtained from the PET images, with regions of interest placed in corresponding organs or tissues.

The nature of data set [1]: Behaviour of the complex in solution in vitro. Format: physicochemical. The conditions noted are these: unless a low concentration of surfactant was included.

In the case of `CC(=O)N1CCCCCNC(=O)CCC(=O)N2CCCCCNC(=O)CCC(=O)N(CCCCCN)[O][89Zr+]([O]1)[O]2` [89Zr-DFO, reference compound], in the data set “PET/CT imaging”, the Route of excretion result is given as “excreted renally”, the “PET: radioactivity at 4 h after injection” value is reported as “more radioactivity accumulated in the kidneys” and the “PET: radioactivity at 24 h after injection” value was “still visible”.

As to `NC(=O)CN1CCN(CC(N)=O)CCN(CC(N)=O)CCN(CC(N)=O)CC1.[89Zr+4]` [89Zr-DOTAM], in data set [1], the “Behaviour in solution without surfactant” value is “aggregated and precipitated out of solution”.

For the molecule `O=C1CN2CCN3CCN4CCN(CC2)CC(=O)[O][89Zr]([O]1)([O]C(=O)C3)[O]C(=O)C4` [89Zr-DOTA], in “PET/CT imaging”, the Route of excretion entry is “excreted renally”, the “PET: radioactivity at 4 h after injection” value is on record as “nearly all the radioactivity was excreted” and the “PET: radioactivity at 24 h after injection” value is on record as “barely above background levels”.
